Drawing on US10023591B2, “Heterocyclic derivatives and use thereof” (C&C RESEARCH LABORATORIES, priority 2014, dated 2018), this text covers IC50 for 17 molecules.

SMILES strings stand for the structures.

The test system of one assay is STAT3. The experiment in a line: STAT3 reporter gene assay (luciferase), LNCaP stable cell line pSTAT3-TA-luc, IL-6 stimulation. Conditions: Homo sapiens. The class given is cell-based, human. Summed up: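 LNCaP cells stably carrying pSTAT3-TA-luc were plated 24 h in 3% DCC-FBS medium, then given compound followed by IL-6 (10 ng/mL final) for 24 h at 37 °C. Luciferase was read from lysates, with CellTiter-Glo viability on a duplicate plate. Stimulated 0.1% DMSO wells served as uninhibited control.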
On the technique in general: Reporter assays use an easily measured gene product as a stand-in for the process of interest.

Another assay relates to STAT1. The experiment in a line: STAT1 reporter gene assay (luciferase), U2OS stable cell line pGL4-STAT1-TA-luc, IFN-γ stimulation. The format is cell-based, human. To be noted: Homo sapiens, IFN-γ 50 ng/mL, 8 hours, read-out: IC50 (μM) pSTAT1. Summed up: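 U2OS cells stably carrying a STAT1-driven luciferase reporter were treated with serially diluted compounds plus IFN-γ (50 ng/mL final) for 8 h at 37 °C in 10% FBS medium. Luciferase read after lysis; parallel plate assessed for cytotoxicity by CellTiter-Glo.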

Assay [1] deals with LNCaP prostate cancer cell line. In words: Cell growth inhibition assay, LNCaP (CellTiter-Glo). The class given is cell-based. Conditions: Homo sapiens; LNCaP, 10,000 cells/well, medium with 10 ng/mL IL-6, 96 hours. On the procedure:
(§1) The inhibitory effects of the compounds of the present invention against the growth of cancer cells were evaluated as shown below. The cancer cell lines including prostate cancer cell lines (LNCaP, DU-145), stomach cancer cell line (NCI-N87), and breast cancer cell lines (MDA-MB-468) were cultured under the protocol provided by each supplier. A medium supplemented with 10 ng/mL of IL-6 was used for LNCaP, a prostate cancer cell line, when treated with a drug. Each type of cells to be used in experiments was sub-cultured in a 96-well plate by counting the exact number of cells using Tali™ Image-based Cytometer (Life Technologies). In a 96-well plate, DU-145 was employed with 3,000 cells/well; NCI-N87 was employed with 5,000 cells/well; and LNCaP and MDA-MB-468 were employed with 10,000 cells/well. The cells were treated with the compounds listed in Examples which were diluted in various concentrations. Upon completion of the compounds treatment, LNCaP, DU-145, NCI-N87 cells were cultured at 37° C. under 5% CO2 for 96 hours, and MDA-MB-468 cells were cultured at 37° C. in air for 96 hours. Subsequently, the cells were observed under microscope and drug precipitation and particular findings were investigated and recorded. And then, the 96-well plate was placed at room temperature for 30 minutes, added with 20 pt/well of CellTiter-Glo solution (Cat No. G7573, Promega) and shaken for 10 minutes, followed by being subjected to the measurement using PHERAstar™ microplate reader (BMG LABTECH) according to the supplier's general luminometer protocol. Wells where only culture liquid added without cell plating were used as a negative control, whereas wells where culture liquid containing 0.1% DMSO instead of the compounds listed in Examples were used as a positive control.
In general terms: Cellular ATP, detected with luciferase, serves as a proxy for viable cell number.

Assay [2] has as its system DU-145 prostate cancer cell line. The experiment in a line: Cell growth inhibition assay, DU-145 (CellTiter-Glo). The format is cell-based. Conditions: Homo sapiens; DU-145, 3,000 cells/well, 96 hours. On the procedure: as §1
The test system of assay [3] is NCI-N87 stomach cancer cell line. In words: Cell growth inhibition assay, NCI-N87 (CellTiter-Glo). The class given is cell-based. To be noted: Homo sapiens; NCI-N87, 5,000 cells/well, 96 hours. How it is done:
as §1

By IC50 is commonly meant the concentration that inhibits the measured activity by half. Regarding `COc1ccc(C(C)(C)c2cc(Cl)cc(NC(=O)c3cc4cc(C(C)(C)S(C)(=O)=O)ccc4s3)c2)cc1` [Example 17, N-(3-chloro-5-(2-(4-methoxyphenyl)propan-2-yl)phenyl)-5-(2-(methylsulfonyl)propan-2-yl)benzo[b]thiophene-2-carboxamide], the IC50 is 0.045 µM in the assay with STAT3, above 50 µM in the assay with STAT1, 0.08 µM in assay [1] and 0.039 µM in assay [2].
As to `CS(=O)(=O)Cc1ccc2sc(C(=O)Nc3cc(Cl)cc(Oc4ccc(Cl)cc4)c3)cc2c1` [Example 41, N-(3-chloro-5-(4-chlorophenoxy)phenyl)-5-((methylsulfonyl)methyl)benzo[b]thiophene-2-carboxamide], the IC50 in the assay with STAT3 is 0.16 µM; in the assay with STAT1, above 50 µM; in assay [1], 0.12 µM; in assay [2], 0.063 µM.
For `CC(C)(C)C1CCN(c2cc(NC(=O)c3cc4cc(C(C)(C)S(C)(=O)=O)ccc4s3)cc(Cl)n2)CC1` [Example 105, N-(2-(4-(tert-butyl)piperidin-1-yl)-6-chloropyridin-4-yl)-5-(2-(methylsulfonyl)propan-2-yl)benzo[b]thiophene-2-carboxamide], the IC50 in the assay with STAT3 is 0.049 µM; in the assay on STAT1, above 50 µM; in assay [3], 0.087 µM.
For `C=CCOc1cc(OC(F)(F)F)cc(C(C)(C)c2cc(Cl)cc(NC(=O)c3cc4cc(C(C)(C)S(C)(=O)=O)ccc4s3)c2)c1` [Example 14, N-(3-(2-(3-(allyloxy)-5-(trifluoromethoxy)phenyl)propan-2-yl)-5-chlorophenyl)-5-(2-(methylsulfonyl)propan-2-yl)benzo[b]thiophene-2-carboxamide], in that order: 0.0083 µM, above 50 µM and 0.01 µM.
For `CC(C)(c1ccc2sc(C(=O)Nc3cc(Cl)nc(Oc4cc(Cl)cc(Cl)c4)c3)cc2c1)S(C)(=O)=O` [Example 62, N-(2-chloro-6-(3,5-dichlorophenoxy)pyridin-4-yl)-5-(2-(methylsulfonyl)propan-2-yl)benzo[b]thiophene-2-carboxamide], in that order: 0.02 µM, above 50 µM and 0.034 µM.
Turning to `CC(C)(c1ccc2sc(C(=O)Nc3cc(Cl)nc(Oc4ccc(F)cc4)c3)cc2c1)S(C)(=O)=O` [Example 68, N-(2-chloro-6-(4-fluorophenoxy)pyridin-4-yl)-5-(2-(methylsulfonyl)propan-2-yl)benzo[b]thiophene-2-carboxamide], the IC50 is 0.011 µM with STAT3, above 50 µM with STAT1 and 0.03 µM in assay [3].
Take `CC(C)(c1cc(Cl)cc(NC(=O)c2cc3cc(C(C)(C)S(C)(=O)=O)ccc3s2)c1)c1cc(OC2CC2)cc(OC(F)(F)F)c1` [Example 15, N-(3-chloro-5-(2-(3-cyclopropoxy-5-(trifluoromethoxy)phenyl)propan-2-yl)phenyl)-5-(2-(methylsulfonyl)propan-2-yl)benzo[b]thiophene-2-carboxamide]: the half-inhibitory concentration (IC50) with STAT3 was 0.0057 µM; in the assay with STAT1, above 50 µM; in assay [3], 0.0093 µM.
On to `Cn1nccc1Oc1cc(NC(=O)c2cc3cc(C(C)(C)S(C)(=O)=O)ccc3s2)cc(Cl)n1` [Example 110, N-(2-chloro-6-((1-methyl-1H-pyrazol-5-yl)oxy)pyridin-4-yl)-5-(2-(methylsulfonyl)propan-2-yl)benzo[b]thiophene-2-carboxamide], for which the figures for the half-inhibitory concentration (IC50) (in the assay with STAT3; in the assay with STAT1; in assay [3]) were 0.53 µM, 44.8 µM and 1.2 µM, respectively.
For `COCCS(=O)(=O)C(C)(C)c1ccc2sc(C(=O)Nc3cc(Cl)cc(Oc4ccc(Cl)cc4)c3)cc2c1` [Example 57, N-(3-chloro-5-(4-chlorophenoxy)phenyl)-5-(2-((2-methoxyethyl)sulfonyl)propan-2-yl)benzo[b]thiophene-2-carboxamide], in that order: 0.027 µM, above 50 µM and 0.2 µM.
As to `O=C(Nc1cc(Cl)nc(Oc2ccc(Cl)cc2)c1)c1cc2cc(C3CCCCS3(=O)=O)ccc2s1` (centres unmarked) [Example 74, N-(2-chloro-6-(4-chlorophenoxy)pyridin-4-yl)-5-(1,1-dioxidotetrahydro-2H-thiopyran-2-yl)benzo[b]thiophene-2-carboxamide], the IC50 is 0.12 µM with STAT3, above 50 µM in the assay on STAT1 and 0.61 µM in assay [3].
On the same counts, the results for `Cn1cc(Oc2cc(NC(=O)c3cc4cc(C(C)(C)S(C)(=O)=O)ccc4s3)cc(Cl)n2)cn1` [Example 112, N-(2-chloro-6-((1-methyl-1H-pyrazol-4-yl)oxy)pyridin-4-yl)-5-(2-(methylsulfonyl)propan-2-yl)benzo[b]thiophene-2-carboxamide] are 0.32 µM, 18.9 µM and 1 µM.
For the molecule `Cc1csc(C(C)(C)c2cc(Cl)cc(NC(=O)c3cc4cc(C(C)(C)S(C)(=O)=O)ccc4s3)c2)c1` [Example 32, N-(3-chloro-5-(2-(4-methylthiophen-2-yl)propan-2-yl)phenyl)-5-(2-(methylsulfonyl)propan-2-yl)benzo[b]thiophene-2-carboxamide], the IC50 is 0.01 µM in the assay with STAT3, above 50 µM in the assay on STAT1 and 0.076 µM in assay [3].
For `CC(C)(c1ccc2sc(C(=O)Nc3cc(Cl)nc(OC4CC5C=CC4C5)c3)cc2c1)S(C)(=O)=O` (centres unmarked) [Example 78, N-(2-(bicyclo[2.2.1]hept-5-en-2-yloxy)-6-chloropyridin-4-yl)-5-(2-(methylsulfonyl)propan-2-yl)benzo[b]thiophene-2-carboxamide], in that order: 0.05 µM, above 50 µM and 0.2 µM.
In the case of `CC(C)(c1cc(Cl)cc(NC(=O)c2cc3cc(C(C)(C)S(C)(=O)=O)ccc3s2)c1)c1cc(OCC(F)F)cc(OC(F)(F)F)c1` [Example 13, N-(3-chloro-5-(2-(3-(2,2-difluoroethoxy)-5-(trifluoromethoxy)phenyl)propan-2-yl)phenyl)-5-(2-(methylsulfonyl)propan-2-yl)benzo[b]thiophene-2-carboxamide], the half-inhibitory concentration (IC50) is 0.01 µM with STAT3, above 50 µM in the assay with STAT1 and 0.028 µM in assay [3].
For `O=C(Nc1cc(Cl)nc(Oc2ccc(Cl)cc2)c1)c1cc2cc(C3CCCS3(=O)=O)ccc2s1` (centres unmarked) [Example 73, N-(2-chloro-6-(4-chlorophenoxy)pyridin-4-yl)-5-(1,1-dioxidotetrahydrothiophen-2-yl)benzo[b]thiophene-2-carboxamide], in that order: 0.13 µM, above 50 µM and 0.45 µM.
For `CC(C)(c1ccc2sc(C(=O)Nc3cc(Cl)nc(OC4CC=C(Cl)CC4)c3)cc2c1)S(C)(=O)=O` (centres unmarked) [Example 101, N-(2-chloro-6-((4-chlorocyclohex-3-en-1-yl)oxy)pyridin-4-yl)-5-(2-(methylsulfonyl)propan-2-yl)benzo[b]thiophene-2-carboxamide], the IC50 in the assay on STAT3 was 0.0093 µM; in the assay with STAT1 it was above 50 µM; in assay [3] it was 0.068 µM.
On the same counts, the results for `CC(C)Oc1cc(OC(F)(F)F)cc(C(C)(C)c2cc(Br)cc(NC(=O)c3cc4cc(C(C)(C)S(C)(=O)=O)ccc4s3)c2)c1` [Example 9, N-(3-bromo-5-(2-(3-isopropoxy-5-(trifluoromethoxy)phenyl)propan-2-yl)phenyl)-5-(2-(methylsulfonyl)propan-2-yl)benzo[b]thiophene-2-carboxamide] are 0.00065 µM, above 50 µM and 0.02 µM.
